In the NIST ThermoML archive (doi:10.1016/j.tca.2019.01.021):
Numbers after ± are expanded uncertainties.

Experiment: molar enthalpy of vaporization or sublimation
Settings: 298.15 K; Crystal; Static calorimetry

- molar enthalpy: 28.6 ± 0.598 kcal/mol
SMILES: OCCc1c[nH]c2ccccc12 [2-(1H-indol-3-yl)ethanol]
